Measured values published in PubChem BioAssay AID330 (DTP/NCI, 2004).
Values joined by “and” are separate entries in the source; they are usually repeats but may differ in a detail not shown here. Identical values can stand only once. Toxic doses and inconclusive results are not listed. Peptide text beside a SMILES is read from it.

Tested on: P388 leukemia ip, CD2F1 mice, survival T/C
Assay: NCI In Vivo Anticancer Drug Screen. Data for tumor model P388 Leukemia (intraperitoneal) in CD2F1 (CDF1) mice
Settings: endpoint: median survival time, higher = longer survival
Method in brief: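 Mice carrying the transplanted tumor received test compound or vehicle. Survival was recorded in each group, and the value is the treated-group measurement divided by that of the vehicle-treated control group.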

[1] = dose: 12.5 mg/kg/injection, schedule: Q01DX005 (ip), vehicle: Klucel (hydroxypropylcellulose) (HPC)
[2] = dose: 25.0 mg/kg/injection, schedule: Q01DX005 (ip), vehicle: Klucel (hydroxypropylcellulose) (HPC)
[3] = dose: 50.0 mg/kg/injection, schedule: Q01DX005 (ip), vehicle: Klucel (hydroxypropylcellulose) (HPC)
[4] = dose: 100.0 mg/kg/injection, schedule: Q01DX005 (ip), vehicle: Klucel (hydroxypropylcellulose) (HPC)
[5] = dose: 200.0 mg/kg/injection, schedule: Q01DX005 (ip), vehicle: Klucel (hydroxypropylcellulose) (HPC)
[6] = dose: 100.0 mg/kg/injection, schedule: Q01DX009 (ip), vehicle: saline with Tween-80
[7] = dose: 50.0 mg/kg/injection, schedule: Q01DX005 (ip), vehicle: saline with Tween-80
[8] = dose: 100.0 mg/kg/injection, schedule: Q01DX005 (ip), vehicle: saline with Tween-80
[9] = dose: 200.0 mg/kg/injection, schedule: Q01DX005 (ip), vehicle: saline with Tween-80
[10] = dose: 25.0 mg/kg/injection, schedule: Q01DX009 (ip), vehicle: Klucel (hydroxypropylcellulose) (HPC)
[11] = dose: 50.0 mg/kg/injection, schedule: Q01DX009 (ip), vehicle: Klucel (hydroxypropylcellulose) (HPC)
[12] = dose: 100.0 mg/kg/injection, schedule: Q01DX009 (ip), vehicle: Klucel (hydroxypropylcellulose) (HPC)
[13] = dose: 6.25 mg/kg/injection, schedule: Q01DX009 (ip), vehicle: Klucel (hydroxypropylcellulose) (HPC)
[14] = dose: 12.5 mg/kg/injection, schedule: Q01DX009 (ip), vehicle: Klucel (hydroxypropylcellulose) (HPC)
[15] = dose: 60.0 mg/kg/injection, schedule: Q01DX005 (ip), vehicle: saline
[16] = dose: 120.0 mg/kg/injection, schedule: Q01DX005 (ip), vehicle: saline
[17] = dose: 60.0 mg/kg/injection, schedule: Q01DX005 (ip), vehicle: saline with Tween-80
[18] = dose: 120.0 mg/kg/injection, schedule: Q01DX005 (ip), vehicle: saline with Tween-80
[19] = dose: 240.0 mg/kg/injection, schedule: Q01DX005 (ip), vehicle: saline with Tween-80

## COC(=O)C/C(=C/C=C1/C(=O)ON=C1C)c1c(C)[nH]oc1=O
dose: 100.0 mg/kg/injection, schedule: Q04DX003 (ip), vehicle: saline
  T/C: 100 % of control
dose: 200.0 mg/kg/injection, schedule: Q04DX003 (ip), vehicle: saline
  T/C: 100 % of control
dose: 400.0 mg/kg/injection, schedule: Q04DX003 (ip), vehicle: saline
  T/C: 100 % of control

## Cc1ccc(-n2c(C)nc3[nH]cc(C)c3c2=N)cc1
dose: 6.25 mg/kg/injection, schedule: Q01DX005 (ip), vehicle: Klucel (hydroxypropylcellulose) (HPC)
  T/C: 101 % of control
[1]
  T/C: 99 % of control
[2]
  T/C: 99 % of control

## CC1(C)CC(C)(OC(=O)c2ccccc2Cl)[N+]([O-])=N1 (stereo unspecified) (tested in a mixture with another compound)
dose: 12.5 mg/kg/injection, schedule: Q01DX009 (ip), vehicle: other
  T/C: 99 % of control
dose: 25.0 mg/kg/injection, schedule: Q01DX009 (ip), vehicle: other
  T/C: 98 % of control
dose: 50.0 mg/kg/injection, schedule: Q01DX009 (ip), vehicle: other
  T/C: 93 % of control
dose: 100.0 mg/kg/injection, schedule: Q01DX009 (ip), vehicle: other
  T/C: 94 % of control
dose: 200.0 mg/kg/injection, schedule: Q01DX009 (ip), vehicle: other
  T/C: 100 % of control

## CCCCOP(O)(=S)OCCCC.[Ho]
dose: 66.0 mg/kg/injection, schedule: Q01DX001 (ip), vehicle: saline with Tween-80
  T/C: 100 % of control
dose: 100.0 mg/kg/injection, schedule: Q01DX001 (ip), vehicle: saline with Tween-80
  T/C: 98 % of control
dose: 150.0 mg/kg/injection, schedule: Q01DX001 (ip), vehicle: saline with Tween-80
  T/C: 98 % of control
dose: 200.0 mg/kg/injection, schedule: Q01DX001 (ip), vehicle: saline with Tween-80
  T/C: 90 % of control
dose: 400.0 mg/kg/injection, schedule: Q01DX001 (ip), vehicle: saline with Tween-80
  T/C: 90 % of control

## C=CCN(CCNc1cccc2ccccc12)C1CCCCC1
[3]
  T/C: 92 % of control
[4]
  T/C: 100 % of control
[5]
  T/C: 104 % of control

## CCCCCCCC/C=C\CCCCCCCC(=O)OC/C=C/COC(=O)c1ccccc1
dose: 100.0 mg/kg/injection, schedule: Q04DX003 (ip), vehicle: Klucel (hydroxypropylcellulose) (HPC)
  T/C: 106 % of control
dose: 200.0 mg/kg/injection, schedule: Q04DX003 (ip), vehicle: Klucel (hydroxypropylcellulose) (HPC)
  T/C: 99 % of control
dose: 400.0 mg/kg/injection, schedule: Q04DX003 (ip), vehicle: Klucel (hydroxypropylcellulose) (HPC)
  T/C: 106 % of control

## COc1cccc2c1C(=O)c1c(O)c3c(c(O)c1C2=O)C[C@@](O)(C(=O)CO)C[C@@H]3OC1CC(NCC#N)C(O)C(C)O1 (stereo partly specified)
dose: 8.0 mg/kg/injection, schedule: Q04DX003 (ip), vehicle: saline + alcohol
  T/C: 153 % of control
dose: 32.0 mg/kg/injection, schedule: Q04DX003 (ip), vehicle: saline + Tween-80 + alcohol
  T/C: 108 % of control
dose: 32.0 mg/kg/injection, schedule: Q04DX003 (ip), vehicle: saline + alcohol
  T/C: 117 % of control

## O=c1[nH]ccc2sccc12
dose: 50.0 mg/kg/injection, schedule: Q01DX009 (ip), vehicle: saline with Tween-80
  T/C: 95 % of control
[6]
  T/C: 100 % of control

## CSC1=Nc2cc3c(cc2C(=O)N2C[C@H](O)CC12)OCO3 (stereo partly specified)
[7]
  T/C: 108 % of control
[8]
  T/C: 102 % of control
[9]
  T/C: 94 % of control

## NC(=NCc1ccccc1)c1ccc(N=C(N)c2ccc(C(N)=Nc3ccc(C(N)=NCc4ccccc4)cc3)cc2)cc1
dose: 5.0 mg/kg/injection, schedule: Q01DX009 (ip), vehicle: saline sonified
  T/C: 118 % of control
dose: 6.6 mg/kg/injection, schedule: Q01DX009 (ip), vehicle: saline
  T/C: 109 % of control
dose: 10.0 mg/kg/injection, schedule: Q01DX009 (ip), vehicle: saline
  T/C: 122 % of control
dose: 10.0 mg/kg/injection, schedule: Q04DX003 (ip), vehicle: saline with Tween-80
  T/C: 104 % of control
dose: 20.0 mg/kg/injection, schedule: Q04DX003 (ip), vehicle: saline with Tween-80
  T/C: 95 % of control

## O=C(O)c1cccc2cccc(-c3c4ccc(=O)c(O)c-4oc4c(O)c(O)ccc34)c12
[6]
  T/C: 109 % of control
dose: 200.0 mg/kg/injection, schedule: Q01DX009 (ip), vehicle: saline with Tween-80
  T/C: 113 % of control

## CC/C=C/C(O)C(O)C1=C(C)C(=O)C2(O1)C(=O)NC(OC)(C(=O)c1ccccc1)C2O (stereo unspecified)
[1]
  T/C: 99 % of control
[2]
  T/C: 99 % of control
[3]
  T/C: 94 % of control
[4]
  T/C: 96 % of control
dose: 150.0 mg/kg/injection, schedule: Q01DX005 (ip), vehicle: Klucel (hydroxypropylcellulose) (HPC)
  T/C: 103 % of control
[5]
  T/C: 106 % of control

## CC(N)C(=O)NC(Cc1ccc(O)cc1)C(=O)NC(Cc1ccccc1)C(N)=O (stereo not drawn) (H-Ala-Tyr-Phe-NH2; configuration not given here)
dose: 50.0 mg/kg/injection, schedule: Q01DX005 (ip), vehicle: saline
  T/C: 102 % of control
dose: 100.0 mg/kg/injection, schedule: Q01DX005 (ip), vehicle: saline
  T/C: 101 % of control
dose: 200.0 mg/kg/injection, schedule: Q01DX005 (ip), vehicle: saline
  T/C: 101 % of control

## COc1cc(C=O)cc(Br)c1O
[10]
  T/C: 108 % of control
[11]
  T/C: 108 % of control
[12]
  T/C: 108 % of control
dose: 200.0 mg/kg/injection, schedule: Q01DX009 (ip), vehicle: Klucel (hydroxypropylcellulose) (HPC)
  T/C: 105 % of control

## CC(C)(C)C1=CC(=C/C=C/c2cc(C(C)(C)C)[o+]c(C(C)(C)C)c2)C=C(C(C)(C)C)O1
dose: 1.56 mg/kg/injection, schedule: Q01DX009 (ip), vehicle: Klucel (hydroxypropylcellulose) (HPC)
  T/C: 105 % of control
dose: 3.12 mg/kg/injection, schedule: Q01DX009 (ip), vehicle: Klucel (hydroxypropylcellulose) (HPC)
  T/C: 96 % of control
[13]
  T/C: 109 % of control and 111 % of control
[14]
  T/C: 108 % of control and 116 % of control
[10]
  T/C: 109 % of control

## COC(=O)C1(CC(=O)c2ccc(C)cc2)NC(=S)NC(=O)C1C#N (stereo unspecified)
[15]
  T/C: 100 % of control
[16]
  T/C: 104 % of control
dose: 240.0 mg/kg/injection, schedule: Q01DX005 (ip), vehicle: saline
  T/C: 100 % of control

## Nc1nnc2nc(C(C(=O)c3ccccc3Cl)c3nc4nnc(N)n4[nH]c3=O)c(=O)[nH]n12
[17]
  T/C: 101 % of control
[18]
  T/C: 98 % of control
[19]
  T/C: 99 % of control

## CCN(CC)P(=S)(c1ccccc1CCP(=S)(c1ccccc1)c1ccccc1)N(CC)CC
[17]
  T/C: 92 % of control
[18]
  T/C: 93 % of control
[19]
  T/C: 91 % of control

## CCOC(=O)/C=C/c1c(Cl)n(C)c(=O)n(C)c1=O
dose: 7.5 mg/kg/injection, schedule: Q01DX005 (ip), vehicle: Klucel (hydroxypropylcellulose) (HPC)
  T/C: 102 % of control
dose: 15.0 mg/kg/injection, schedule: Q01DX005 (ip), vehicle: Klucel (hydroxypropylcellulose) (HPC)
  T/C: 100 % of control
dose: 30.0 mg/kg/injection, schedule: Q01DX005 (ip), vehicle: Klucel (hydroxypropylcellulose) (HPC)
  T/C: 100 % of control

## CN(C)c1ccc2c(Oc3ccccc3)cc(N)nc2c1
[7]
  T/C: 94 % of control
[8]
  T/C: 92 % of control
[9]
  T/C: 92 % of control

## Nc1ccc2c(NCCCCCCCCNc3c4ccccc4nc4cc(N)ccc34)c3ccccc3nc2c1
dose: 1.25 mg/kg/injection, schedule: Q01DX009 (ip), vehicle: other
  T/C: 158 % of control
dose: 2.5 mg/kg/injection, schedule: Q01DX009 (ip), vehicle: other
  T/C: 150 % of control
dose: 5.0 mg/kg/injection, schedule: Q01DX009 (ip), vehicle: other
  T/C: 151 % of control

## O=[N+]([O-])c1ccc(SC(=S)N(c2ccccc2)c2ccccc2)c([N+](=O)[O-])c1
[13]
  T/C: 104 % of control
[14]
  T/C: 102 % of control
[10]
  T/C: 102 % of control
[11]
  T/C: 102 % of control

## Cc1ccc2c(c1)sc1nnc(S(C)(=O)=O)n12
[14]
  T/C: 118 % of control
[10]
  T/C: 110 % of control
[11]
  T/C: 102 % of control and 118 % of control
[12]
  T/C: 111 % of control

## CCN(CC)C(C)(C)C(=O)/C=C/c1ccc(Cl)cc1
[15]
  T/C: 115 % of control
[16]
  T/C: 101 % of control

## CSC(=S)NNC(C)c1nccc2ccccc12 (stereo unspecified)
[7]
  T/C: 109 % of control
[8]
  T/C: 114 % of control
[9]
  T/C: 108 % of control
